# Data: article PMC7262789 (Journal of medicinal chemistry, 2019)
# Target: T1, full-length human sEH (Homo sapiens, UniProt P34913)
# T1 sequence (P34913 1-555): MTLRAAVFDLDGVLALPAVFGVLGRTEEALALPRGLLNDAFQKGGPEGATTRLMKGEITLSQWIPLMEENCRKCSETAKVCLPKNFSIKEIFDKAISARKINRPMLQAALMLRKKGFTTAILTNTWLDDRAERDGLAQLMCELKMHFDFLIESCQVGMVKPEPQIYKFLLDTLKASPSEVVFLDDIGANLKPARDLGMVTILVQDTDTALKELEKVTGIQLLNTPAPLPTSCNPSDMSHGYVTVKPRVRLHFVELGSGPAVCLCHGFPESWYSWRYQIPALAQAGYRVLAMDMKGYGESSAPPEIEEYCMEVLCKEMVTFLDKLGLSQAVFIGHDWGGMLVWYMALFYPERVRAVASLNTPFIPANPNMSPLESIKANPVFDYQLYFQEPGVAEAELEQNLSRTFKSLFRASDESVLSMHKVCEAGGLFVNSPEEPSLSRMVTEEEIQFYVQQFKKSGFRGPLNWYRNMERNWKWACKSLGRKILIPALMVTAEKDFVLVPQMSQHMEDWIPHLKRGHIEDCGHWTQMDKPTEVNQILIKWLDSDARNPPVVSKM
# Assay: DiFMUP-based phosphatase assay, full-length sEH
# Conditions: substrate
row,Km,Compound
1,628 µM,"Cc1cc(=O)oc2c(F)c(OP(=O)(O)O)c(F)cc12 [DiFMUP, reference compound]"

# Target: T2, isolated N-terminal domain of sEH (sEH-P) (Homo sapiens, UniProt P34913)
# T2 sequence (P34913 1-222): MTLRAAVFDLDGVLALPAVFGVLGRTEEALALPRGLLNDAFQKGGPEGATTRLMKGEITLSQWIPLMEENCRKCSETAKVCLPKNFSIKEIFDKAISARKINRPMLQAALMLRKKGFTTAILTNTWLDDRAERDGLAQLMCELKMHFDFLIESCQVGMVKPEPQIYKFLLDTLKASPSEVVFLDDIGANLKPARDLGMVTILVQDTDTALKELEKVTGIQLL
# Assay: DiFMUP-based phosphatase assay, isolated N-terminal domain
# Conditions: substrate
row,Km,Compound
1,220 µM,"Cc1cc(=O)oc2c(F)c(OP(=O)(O)O)c(F)cc12 [DiFMUP, reference compound]"

# Target: T3, recombinant sEH-P domain (N-terminal domain of sEH) (Homo sapiens, UniProt P34913)
# T3 sequence (P34913 1-222): T2 sequence (P34913 1-222)
# Assay: FDP-based phosphatase assay, isolated sEH-P domain
# Format: biochemical
# Conditions: FDP substrate, recombinant sEH-P domain
row,Compound,inhibitory potency toward sEH-P (SAR statement in words)
1,"O=C(O)CCc1nc(-c2ccccc2F)c(-c2ccccc2)o1 [20a, 3-(4-(2-Fluorophenyl)-5-phenyloxazol-2-yl)propanoic Acid]",poorly tolerated
2,"O=C(O)CCc1nc(-c2ccccc2Cl)c(-c2ccccc2)o1 [20b, 3-(4-(2-Chlorophenyl)-5-phenyloxazol-2-yl)propanoic Acid]",poorly tolerated
3,"N#Cc1cccc(-c2nc(CCC(=O)O)oc2-c2ccccc2)c1 [20c, 3-(4-(3-Cyanophenyl)-5-phenyloxazol-2-yl)propanoic Acid]",retained similar potency as 5
4,"O=C(O)CCc1nc(-c2cccc(F)c2)c(-c2ccccc2)o1 [20d, 3-(4-(3-Fluorophenyl)-5-phenyloxazol-2-yl)propanoic Acid]",retained similar potency as 5
5,"O=C(O)CCc1nc(-c2ccc(F)cc2)c(-c2ccccc2)o1 [20e, 3-(4-(4-Fluorophenyl)-5-phenyloxazol-2-yl)propanoic Acid]",only slightly diminished the potency
6,"O=C(O)CCc1nc(-c2ccc(C(F)(F)F)cc2)c(-c2ccccc2)o1 [20f, 3-(5-Phenyl-4-(4-(trifluoromethyl)phenyl)oxazol-2-yl)propanoic Acid]",loss of activity
7,"N#Cc1ccc(-c2nc(CCC(=O)O)oc2-c2ccccc2)cc1 [20g, 3-(4-(4-Cyanophenyl)-5-phenyloxazol-2-yl)propanoic Acid]",loss of activity
8,"O=C(O)CCc1nc(-c2ccc(Cl)cc2)c(-c2ccccc2)o1 [20h, 3-(4-(4-Chlorophenyl)-5-phenyloxazol-2-yl)propanoic Acid]",slightly enhanced inhibitory potency
9,"COc1ccc(-c2nc(CCC(=O)O)oc2-c2ccccc2)cc1 [20i, 3-(4-(4-Methoxyphenyl)-5-phenyloxazol-2-yl)propanoic Acid]",decreased the activity
10,"O=C(O)CCc1nc(-c2ccc(Cl)cc2Cl)c(-c2ccccc2)o1 [20l, 3-(4-(2,4-Dichlorophenyl)-5-phenyloxazol-2-yl)propanoic Acid]",did not lead to potency improvement
11,"O=C(O)CCc1nc(-c2cc(Cl)cc(Cl)c2)c(-c2ccccc2)o1 [20m, 3-(4-(3,5-Dichlorophenyl)-5-phenyloxazol-2-yl)propanoic Acid]",did not lead to potency improvement
12,"O=C(O)c1ccccc1-c1nc(-c2ccc(Cl)c(Cl)c2)c(-c2ccccc2)o1 [22c, 2-(4-(3,4-Dichlorophenyl)-5-phenyloxazol-2-yl)benzoic Acid]",did not retain this high potency
13,"O=C(O)c1ccc(-c2nc(-c3ccc(Cl)c(Cl)c3)c(-c3ccccc3)o2)cc1 [22e, 4-(4-(3,4-Dichlorophenyl)-5-phenyloxazol-2-yl)benzoic Acid]",did not retain this high potency
14,"O=C(O)CCCc1nc(-c2ccc(Cl)c(Cl)c2)c(-c2ccncc2)o1 [28a, 4-(4-(3,4-Dichlorophenyl)-5-(pyridin-4-yl)oxazol-2-yl)butanoic Acid]",not favored
15,"O=C(O)CCCc1nc(-c2ccc(Cl)c(Cl)c2)c(-c2cccnc2)o1 [28b, 4-(4-(3,4-Dichlorophenyl)-5-(pyridin-3-yl)oxazol-2-yl)butanoic Acid]",not favored
16,"O=C(O)CCCc1nc(-c2ccc(Cl)c(Cl)c2)c(-c2cccc(F)c2)o1 [28e, 4-(4-(3,4-Dichlorophenyl)-5-(3-fluorophenyl)oxazol-2-yl)butanoic Acid]",slight preference
17,"N#Cc1cccc(-c2oc(CCCC(=O)O)nc2-c2ccc(Cl)c(Cl)c2)c1 [28g, 4-(5-(3-Cyanophenyl)-4-(3,4-dichlorophenyl)oxazol-2-yl)butanoic Acid]",slight preference
18,"C#Cc1cccc(-c2oc(CCCC(=O)O)nc2-c2ccc(Cl)c(Cl)c2)c1 [28j, 4-(4-(3,4-Dichlorophenyl)-5-(3-ethynylphenyl)oxazol-2-yl)butanoic Acid]",slight preference
19,"O=C(O)CSc1nc(-c2ccccc2)c(-c2ccccc2)o1 [compound 9, 2-((4,5-Diphenyloxazol-2-yl)thio)acetic Acid]",slightly diminished the potency
20,"NC(=O)CCc1nc(-c2ccccc2)c(-c2ccccc2)o1 [compound 12, 3-(4,5-Diphenyloxazol-2-yl)propanamide]",complete loss of activity
21,"O=C(O)CCCc1nc(-c2ccc(Cl)c(Cl)c2)co1 [compound 25, 4-(4-(3,4-Dichlorophenyl)oxazol-2-yl)butanoic Acid]",potency dropped dramatically
22,"O=C(O)CCCc1nc(-c2ccc(Cl)c(Cl)c2)c(Br)o1 [compound 26, 4-(5-Bromo-4-(3,4-dichlorophenyl)oxazol-2-yl)butanoic Acid]",partially restored

# Same assay, conditions: rigidization of the ethyl linker by a double bond
row,Compound,loss of potency
1,"O=C(O)/C=C/c1nc(-c2ccc(Cl)c(Cl)c2)c(-c2ccccc2)o1 [22a, 3-(4-(3,4-Dichlorophenyl)-5-phenyloxazol-2-yl)acrylic Acid]",2 fold

# Same assay, conditions: second chlorine at meta position, compared with 20h
row,Compound,increase in sEH-P inhibition
1,"O=C(O)CCc1nc(-c2ccc(Cl)c(Cl)c2)c(-c2ccccc2)o1 [20k, 3-(4-(3,4-Dichlorophenyl)-5-phenyloxazol-2-yl)propanoic Acid]",more than 10 fold

# Target: T4, N-terminal domain of sEH (sEH-P) (Homo sapiens, UniProt P34913)
# T4 sequence (P34913 2-224): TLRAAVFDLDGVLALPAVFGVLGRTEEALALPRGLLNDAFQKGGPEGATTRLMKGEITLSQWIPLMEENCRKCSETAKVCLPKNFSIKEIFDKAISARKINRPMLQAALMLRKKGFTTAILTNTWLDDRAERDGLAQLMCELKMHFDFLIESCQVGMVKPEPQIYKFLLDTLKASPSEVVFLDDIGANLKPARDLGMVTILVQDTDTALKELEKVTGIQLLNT
# Assay: Differential scanning fluorimetry
# Format: binding
# Conditions: inhibitor 50 μM
row,Compound,stabilization of the N-terminal domain in DSF
1,"O=C(Nc1ccc(I)cc1)NC1CCCCC1 [CIU, N-cyclohexyl-N′-(4-iodophenyl)urea, reference compound]",no stabilizing effect
2,"CC(=O)N[C@@H](CSC/C=C(\C)CC/C=C(\C)CCC=C(C)C)C(=O)O [compound 2, N-acetyl-S-farnesyl-L-cysteine]",able to stabilize

# Target: T5, C-terminal domain of sEH (sEH-H) (Homo sapiens, UniProt P34913)
# T5 sequence (P34913 235-555 limits assumed): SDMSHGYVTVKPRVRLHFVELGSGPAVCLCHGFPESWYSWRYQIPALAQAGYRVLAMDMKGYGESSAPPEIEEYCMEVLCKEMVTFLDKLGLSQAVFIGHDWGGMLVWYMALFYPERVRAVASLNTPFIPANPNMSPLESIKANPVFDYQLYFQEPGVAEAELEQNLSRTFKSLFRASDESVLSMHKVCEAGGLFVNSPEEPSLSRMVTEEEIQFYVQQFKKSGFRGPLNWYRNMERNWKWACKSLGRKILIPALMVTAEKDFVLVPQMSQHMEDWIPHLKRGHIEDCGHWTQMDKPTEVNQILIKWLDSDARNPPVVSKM
# Assay: Differential scanning fluorimetry
# Format: binding
# Conditions: inhibitor 50 μM
row,Compound,stabilization of the C-terminal domain in DSF
1,"O=C(Nc1ccc(I)cc1)NC1CCCCC1 [CIU, N-cyclohexyl-N′-(4-iodophenyl)urea, reference compound]",significantly increased
